Values of other authors as cited in patent US20150209327A1, “METHODS FOR THE TREATMENT OF OBESITY USING APREMILAST” (Celgene Corporation, priority 2014, published 2015).

Details: treatment of COPD; cited from earlier work

O=C(Nc1c(Cl)cncc1Cl)c1ccc(OC(F)F)c(OCC2CC2)c1 [roflumilast]
weight change as a side effect: Weight decrease was observed
